The source of these data is ChEMBL document CHEMBL3525943, “Regiospecific and stereospecific triangulation of the structures of metabolites formed by sequential metabolism at multiple prochiral centers” (Drug Metab Dispos, 2012).

Common to all, as to conditions: in vivo
In data set [1] the test system is Rattus norvegicus. The experiment in a line: Total drug recovery in female Sprague-Dawley rat treated with [14C]-AMG 221 at 2 mg/kg, po measured over 48 hrs by liquid scintillation counting analysis. More on the design: dose 2 mg/kg, route oral. The data set is classed as ADME, organism-based.
The nature of data set [2]: Drug level in Sprague-Dawley rat urine treated with [14C]-(S)-2-((1R,2S,4R,5S)-5-hydroxybicyclo[2.2.1]heptan-2-ylamino)-5-isopropyl-5-methylthiazol-4(5H)-one at 5 mg/kg, po measured over 48 hrs by LC-MS/MS analysis. More on the design: dose 5 mg/kg, route oral. In kind it is ADME, organism-based.
Data set [3] is described as follows: Retention time of the compound in Beagle dog urine treated with [14C]-AMG 221 at 2 mg/kg, po measured over 24 hrs by LC-MS/HPLC radiometric analysis. The data set is classed as ADME, organism-based, Canis lupus familiaris. More on the design: dose 2 mg/kg, route oral.
Data set [4] in a line: Drug excretion in female Sprague-Dawley rat feces treated with [14C]-AMG 221 at 2 mg/kg, po measured over 24 hrs by LC-MS/HPLC radiometric analysis. The arrangement: dose 2 mg/kg, route oral. The data set is classed as ADME, organism-based.
A short description of data set [5]: Retention time of the compound in Sprague-Dawley rat feces treated with [14C]-AMG 221 at 2 mg/kg, po measured over 48 hrs by LC-MS/HPLC radiometric analysis. More on the design: dose 2 mg/kg, route oral. The data set is classed as ADME, organism-based.
A short description of data set [6]: Drug level in Sprague-Dawley rat feces treated with [14C]AMG221 at 2 mg/kg, po measured over 24 hrs by LC-MS/HPLC radiometric analysis. The arrangement: dose 2 mg/kg, route oral. In kind it is ADME, organism-based.
The nature of data set [7]: Drug excretion in male Sprague-Dawley rat feces treated with [14C]-AMG 221 at 2 mg/kg, po measured over 24 hrs by LC-MS/HPLC radiometric analysis. In kind it is ADME, organism-based. The arrangement: dose 2 mg/kg, route oral.

Structures are written as SMILES.

In data set [1], `CC(C)[C@]1(C)SC(N[C@H]2C[C@H]3C[C@@H]2C[C@@H]3O[C@@H]2O[C@H](C(=O)O)[C@@H](O)[C@H](O)[C@H]2O)=NC1=O` registered a Drug recovery of 0.2%. For the same molecule, the Drug metabolism result in data set [2] is listed as “metabolite_detected”. The molecule also returned a Retention_time in data set [3] of 20.6 min.
With `CC(C)[C@]1(C)SC(N[C@H]2C[C@H]3C[C@@H]2C[C@@H]3OS(=O)(=O)O)=NC1=O`, the results for the Drug excretion in data set [4] and in data set [7] were 6% and “metabolite_not_detected”, respectively. This molecule also registered a Retention_time in data set [5] of 23.2 min. For the same molecule, in data set [6], the Drug metabolism result is given as “metabolite_detected”. The same molecule showed a Drug recovery in data set [1] of 6%.
